# Several values for one entry are separate records, joined by “and”; a condition that tells them apart may be missing. Equal values may be shown once. Read-outs that look alike come from different tables or passages of the source.
# Key:
# TNF-α = TNF-α in supernatant of SARS-CoV-2-infected human primary monocytes; assay type: cell-based; settings: infected monocytes
# Description: Human primary monocytes were obtained after 3 h of plastic adherence of peripheral blood mononuclear cells (PBMCs). The use of primary human cell was approved by Institutional Review Board from the Oswaldo Cruz Foundation under protocol 49971421.8.0000.5248 with signed informed consent in accordance with the Hemotherapy Service of Hospital Clementino Fraga from the Federal University of Rio de Janeiro. All volunteers were de-identified. PBMCs were isolated from healthy donors by density gradient centrifugation (Ficoll-Paque, GE Healthcare). PBMCs (2.0 × 10^6 cells) were plated onto 48-well plates (NalgeNunc) in RPMI-1640 without serum for 2–4 h. Nonadherent cells were removed, and the remaining monocytes were maintained in DMEM with 5% human serum (HS; Millipore) and penicillin/streptomycin. The purity of human monocytes was above 95%, as determined by flow cytometric analysis (FACScan; Becton Dickinson) using anti-CD3 (BD Biosciences, cat # 555342, 1:40), anti-CD16 (Southern Biotech, cat # 561313, 1:20) and APC mouse IgG2a isotype (BD Biosciences, cat # 550882, 1/40) and PE mouse IgG1 isotype (BD Biosciences, 555749, 1/20).
# SARS-CoV-2 [1] = assay: Genomic and subgenomic viral RNA in infected Calu-3 cells (RT-PCR); assay type: cell-based; settings: Calu-3, 10 µM, 48 h
# SARS-CoV-2 RNA = assay: RNA immunoprecipitation with anti-kinetin antibody, infected Calu-3 cells; assay type: cell-based
# SARS-CoV-2 [2] = assay: Combination of RdRp inhibitors with SARS-CoV-2 nsp14 inhibitors in infected Calu-3 cells, synergy; assay type: cell-based; settings: for Response (Fig3C source data for synergy analysis): DTG 0 nM
# [3] = Pharmacokinetics and metabolites in rat plasma; assay type: in vivo, Sprague-Dawley rats (Rattus norvegicus); design: MB-905 in rat plasma (Fig4B source data, per animal) / MB-905 in rat plasma (Fig4A source data, per animal): unit not given here; settings: for MB-905 in rat plasma (Fig4A source data, per animal): 1 mg/kg i.v.; for MB-905 in rat plasma (Fig4B source data, per animal): 30 mg/kg oral; for k el: read-out: Ke (converted)
# SARS-CoV-2 gamma VoC [4] = tested on: SARS-CoV-2 gamma VoC; design: species or system K18-hACE2 mice (Mus musculus); settings: mouse, in vivo
# SARS-CoV-2 gamma VoC [5] = tested on: SARS-CoV-2 gamma VoC; design: species or system K18-hACE2 mice (Mus musculus); settings: mouse, in vivo, 140 mg/kg/day
# SARS-CoV-2 gamma VoC [6] = tested on: SARS-CoV-2 gamma VoC; design: species or system K18-hACE2 mice (Mus musculus); settings: mouse, in vivo; remark: listed apart in the source
# SARS-CoV-2 gamma VoC [7] = tested on: SARS-CoV-2 gamma VoC; design: species or system K18-hACE2 mice (Mus musculus); settings: mouse, in vivo; remark: listed apart in the source
# SARS-CoV-2 Gamma VoC [8] = tested on: SARS-CoV-2 Gamma VoC; design: species or system Syrian hamsters (Mesocricetus auratus); settings: hamster, in vivo
# [9] = male, Sprague-Dawley, rat, in vivo, 250 mg/kg
# [10] = tested on: Salmonella typhimurium TA 98; assay: Ames test, strain TA 98
# [11] = MB-905-treated infected Calu-3 cells
# [12] = infected Calu-3, compound alone at 10 uM
# [13] = both sexes, Sprague-Dawley, rat, plasma, iv, rats, 1 mg/kg (i.v.)
# [14] = both sexes, Sprague-Dawley, rat, plasma, po, rats, 30 mg/kg (p.o.)
structure (smiles),measurement,setting,value
"c1coc(CNc2ncnc3[nH]cnc23)c1 [MB-905, N6-furfurylaminopurine]",SARS-CoV-2-induced TNF and IL-6 levels,TNF-α; 10 µM,diminished
same,"TNF-α levels in the culture supernatant (Fig1D source data, per donor)","TNF-α; drugs at 10 µM, 24 h",0.7 and 0.9 and 0.537 and 2.5 and 0.474 and 3.4
same,"Genomic viral RNA (Fig2B source data, replicates)",SARS-CoV-2 [1],0.2 and 0.15 and 0.1
same,"Subgenomic viral RNA (Fig2B source data, replicates)",SARS-CoV-2 [1],0.6 and 0.5 and 0.7
same,Viral RNA immunoprecipitated with anti-kinetin antibody (Ab) (Fig2C source data),SARS-CoV-2 RNA; [11],149.09 and 145.01 and 123.64 and 134.36
same,Viral RNA immunoprecipitated with isotype control (Iso) (Fig2C source data),SARS-CoV-2 RNA; [11],2.52 and 2.29 and 2.30 and 2.50
same,Enrichment of viral RNA in anti-N6-furfuryladenine IP compared to isotype control and nil-treated cells,SARS-CoV-2 RNA; infected Calu-3 cells,more than 10 fold
same,Response (Fig3C source data for synergy analysis),SARS-CoV-2 [2]; MB-905 10 nM,8
same,Response (Fig3C source data for synergy analysis),SARS-CoV-2 [2]; MB-905 100 nM,17
same,Response (Fig3C source data for synergy analysis),SARS-CoV-2 [2]; MB-905 1000 nM,44
same,Response (Fig3C source data for synergy analysis),SARS-CoV-2 [2]; MB-905 10000 nM,89
same,EC50,"SARS-CoV-2 [2]; Severe acute respiratory syndrome coronavirus 2, Calu-3, read-out: EC50 mean",0.3 µM
same,EC90,"SARS-CoV-2 [2]; Severe acute respiratory syndrome coronavirus 2, Calu-3, read-out: EC90 mean",8 µM
same,"Virus productive titers (Fig3A source data, replicates)",SARS-CoV-2 [2]; [12],60000 and 46000 and 56000
same,"Virus productive titers (Fig3B source data, replicates)",SARS-CoV-2 [2]; [12],60000 and 46000 and 52000
same,"MB-905 in rat plasma (Fig4A source data, per animal)",[3]; 0.083 h,122.29 and 142.1 and 107.27 and 127.39 and 93.94
same,"MB-905 in rat plasma (Fig4A source data, per animal)",[3]; 0.25 h,82.46 and 129.29 and 128.28 and 120.23 and 112.61
same,"MB-905 in rat plasma (Fig4A source data, per animal)",[3]; 0.5 h,65.31 and 60.03 and 69.73 and 52.81 and 69.66
same,"MB-905 in rat plasma (Fig4A source data, per animal)",[3]; 1 h,28.25 and 16.64 and 9.33 and 14.09 and 7.19 and 13.17
same,"MB-905 in rat plasma (Fig4A source data, per animal)",[3]; 2 h,1.74 and 1.82 and 1.9 and 1.56 and 1.91
same,"MB-905 in rat plasma (Fig4A source data, per animal)",[3]; 3 h,0.61 and 1.31 and 1.15 (3×) and 1.21
same,"MB-905 in rat plasma (Fig4B source data, per animal)",[3]; 0.25 h,397.32 and 362.53 and 415.61 and 353.44
same,"MB-905 in rat plasma (Fig4B source data, per animal)",[3]; 1 h,263.22 and 231.26 and 292.83 and 229.84
same,"MB-905 in rat plasma (Fig4B source data, per animal)",[3]; 2 h,88.19 and 121.59 and 183.67 and 211.01 and 229.72
same,"MB-905 in rat plasma (Fig4B source data, per animal)",[3]; 3 h,243.45 and 113.36 and 86.5 and 220.24 and 141.51
same,"MB-905 in rat plasma (Fig4B source data, per animal)",[3]; 5 h,154.28 and 65.58 and 86.37 and 126.88 and 27.06
same,"MB-905 in rat plasma (Fig4B source data, per animal)",[3]; 8 h,116.98 and 84.1 and 84.26 and 4.12 and 35.08
same,"MB-905 in rat plasma (Fig4B source data, per animal)",[3]; 12 h,1.46 and 1.1 and 5.1 and 3.6 and 2.01
same,bioavailability,"[3]; both sexes, Sprague-Dawley, rat, plasma, iv, 1 mg/kg, rats, 1 mg/kg (i.v.), read-out: F",100%
same,AUC,[3]; [13],77.1 ng·h/mL
same,AUC(0-t),[3]; [13],77.1 ng·h/mL
same,Cmax,[3]; [13],124 ng/mL
same,Tmax,[3]; [13],4.98 min
same,clearance,[3]; [13],214 mL/min/kg
same,half-life,[3]; [13],33.6 min
same,k el,[3]; [13],0.000342 s⁻¹
same,Vd,"[3]; both sexes, Sprague-Dawley, rat, plasma, iv, rats, 1 mg/kg (i.v.), read-out: Vz",10.4 L/kg
same,bioavailability,"[3]; both sexes, Sprague-Dawley, rat, plasma, po, 30 mg/kg, rats, 30 mg/kg (p.o.), read-out: F",64.7%
same,bioavailability,"[3]; both sexes, Sprague-Dawley, rat, plasma, po, 30 mg/kg, rats, read-out: Oral bioavailability",> 50%
same,AUC,[3]; [14],1500 ng·h/mL
same,AUC(0-t),[3]; [14],1500 ng·h/mL
same,Cmax,[3]; [14],370 ng/mL
same,Tmax,[3]; [14],15 min
same,half-life,[3]; [14],229 min
same,k el,[3]; [14],5e-05 s⁻¹
same,CL,"[3]; rats, 30 mg/kg (p.o.)",330.53 mL/min/kg
same,Vz,"[3]; rats, 30 mg/kg (p.o.)",109.18 L/kg
same,survival event code per animal (Fig5D),SARS-CoV-2 gamma VoC [4],1 (4×) and 0 (2×)
same,Body weight,SARS-CoV-2 gamma VoC [4]; 140 mg/kg/day,recovered their body weight
same,Survival,SARS-CoV-2 gamma VoC [4]; 140 mg/kg/day,survived after two weeks
same,Infectious titers in lungs,SARS-CoV-2 gamma VoC [5],decreased significantly
same,Virus RNA levels from lung extracts,SARS-CoV-2 gamma VoC [5],did not alter
same,LDH levels in bronchoalveolar lavage (BAL),SARS-CoV-2 gamma VoC [6],decreased
same,Fig6G lung histological score,SARS-CoV-2 gamma VoC [7],1 and 2
same,Viral RNA levels,SARS-CoV-2 Gamma VoC [8],did not affect viral RNA levels
same,Infectious virus titers in the lungs,SARS-CoV-2 Gamma VoC [8]; 140 mg/kg,reduced infectious virus titers in the lungs
same,Tolerability,[9],tolerated MB-905 well
same,Mutagenicity TA 98 +S9,[10]; 8 µg/mL,-
same,Mutagenicity TA 98 -S9,[10]; 8 µg/mL,-
same,Mutagenicity TA 98 +S9,[10]; 40 µg/mL,-
same,Mutagenicity TA 98 -S9,[10]; 40 µg/mL,-
same,Mutagenicity TA 98 +S9,[10]; 200 µg/mL,-
same,Mutagenicity TA 98 -S9,[10]; 200 µg/mL,-
same,Mutagenicity TA 98 +S9,"[10]; 1,000 µg/mL",-
same,Mutagenicity TA 98 -S9,"[10]; 1,000 µg/mL",-
same,Mutagenicity TA 98 +S9,"[10]; 5,000 µg/mL",-
same,Mutagenicity TA 98 -S9,"[10]; 5,000 µg/mL",-

# Source: paper PMC9837764 (Nature Communications, 2023)
